In article PMC11997890, “In Vivo and In Vitro Pharmacokinetic Studies of a Dual Topoisomerase I/II Inhibitor” (ACS Pharmacology & Translational Science, 2025):

What was measured:
[1] = In vitro biotransformation of P8-D6 with pig liver fractions; type: in vitro ADME; conditions: for formation of metabolite from P8-D6: 1 mM P8-D6, 150 min
Procedure: P8-D6 (1 mM) was incubated with postnuclear supernatant (PNS), microsomes, or S9 reaction mixture of various tissue samples (liver, kidney, lung, spleen, and colon) from different donor species (pigs, mice, rats, and humans) for 150 min (study preparation scheme supplied as Figure S5). The commercial human and rat enzymes were subjected to quality control by the supplier. Three phase I metabolites were identified. […] LC-MS and NMR spectroscopic data for the metabolites are given in Supporting Information. Based on the structural characteristics, the metabolites were named as follows: P8-DO (4), P8-D6 N-oxide (6), and P8-D6 mono (8). All metabolites were synthesized to confirm the postulated structure (chapter Synthesis of Metabolites). The extent of metabolism during in vitro incubation was highly dependent on the species (pig > mouse > rat > human) (Figure ).
For all phase I metabolism studies (except cell cultures), a 0.3 mL reaction mixture consisting of 1 mM substrate (P8-D6, P8-D6 mono, P8-D6 N-oxide), 1 mM NADPH as a cofactor, 0.67 mg/mL protein from homogenized tissue or subcellular fractions, respectively (except recombinant enzymes, where 0.5 mg/mL was used), and PBS buffer (pH 7.4) was used. All experiments were performed in biological triplicates. The FDA Guidance for Industry highlights 7 CYP isoenzymes (1A2, 2B6, 2C8, 2C9, 2C19, 2D6, and 3A4/5) which routinely should be tested for metabolism during drug development. Table S1 presents an overview of the tissue material and species as well as the CYP enzymes used in this study. All reactions were carried out at 37 °C in a shaking water bath for 150 min before they were stopped with 0.3 mL of an ice-cold mixture of acetonitrile/methanol (1:1). The suspension was vortexed for 30 s and centrifuged at 15000 g for 5 min, and finally, 10 μL of the supernatant was injected into the HPLC. Control samples were prepared with buffer instead of either protein/tissue, cofactor, or substrate.

[2] = In vivo elimination via urine and feces over 24 h; set-up: species or system Sprague–Dawley rats; conditions: for P8-D6 (plus glucuronide) exceeds metabolite in feces: 24 h cumulative
Procedure: To investigate the elimination of P8-D6 and its phase I and phase II metabolites, urine and feces samples were collected over the course of 24 h and examined.
To examine possible in vivo phase II metabolites, an enzymatic hydrolysis with glucuronidase/sulfatase from Helix pomatia was performed with both urine and feces samples. […] No sulfate phase II metabolites were observed.
(§1) Effects of the diet were reduced by fasting the rats overnight prior to P8-D6 application. Blood samples were taken at 5, 15, 30, 60, 120, 180, 300, 360, and 600 min after i.v. application or 30, 60, 90, 120, 240, and 600 min after p.o. application. Immediately afterward, the plasma was collected by centrifugation at 2000 g for 10 min. The rats were housed in metabolic cages to collect the urine in specially attached containers. Urine and feces samples were collected every 2 h. The rats were euthanized by CO2 inhalation. The harvested organs (kidney, spleen, lung, liver, and colon) were weighed and submerged in liquid nitrogen. All collected samples were stored at −80 °C until analysis.
Thirty mg of feces was added to 100 μL of a 0.15 M NaCl solution and stirred in the vortex for 30 s. Afterward, 200 μL of an ice-cold mixture of acetonitrile/methanol (2:1) was added before vortexing again for 30 s. Finally, the suspension was centrifuged at 15000 g for 5 min. 40 μL of the supernatant was injected into the HPLC. The samples from three mice per group were analyzed. Calibration/control samples were prepared the same way with fecal samples collected ahead of the in vivo study. For calibration, the matrix was spiked with a defined concentration of the analyte. Final concentrations ranged from 0 nmol/g to 200 nmol/g. Triple determinations were performed and prepared on each respective day. 50 μL of urine was mixed with 100 μL of an ice-cold mixture of acetonitrile/methanol (2:1) and stirred in the vortex for 5 min. The suspension was centrifuged at 15000 g for 5 min, and 40 μL of the supernatant was injected into the HPLC. Calibration/control samples were prepared the same way with urine samples collected ahead of the in vivo study. For calibration, the matrix was spiked with a defined concentration of the analyte. Final concentrations ranged from 0 to 10 μM. Triple determinations were performed and prepared on each respective day. LoD: 0.02 μM (urine), 0.22 nmol/g (feces); LoQ: 0.06 μM (urine), 0.72 nmol/g (feces). Additionally, to identify phase II metabolites, feces (30 mg) and urine (50 μL) from the in vivo study were incubated with arylsulfatase (at pH 6.2) and glucuronidase (at pH 4.5) from Helix pomatia in acetate buffer for 2 h in a 37 °C water bath. For reference, feces and urine without enzyme and 4-nitrophenylsulfate and 4-nitrophenylglucuronide were incubated as well. All experiments were performed in biological triplicates.

[3] = In vivo tissue distribution of P8-D6 and metabolites; set-up: species or system Sprague–Dawley rats
Procedure: Another part of this in vivo study was to identify in vivo metabolites and determine the tissue distribution of P8-D6 (study preparation scheme supplied as Figure S5). […] P8-D6 N-oxide reached c max/p.o. of 0.054 μM at 30 min, and all following results were below the limit of quantification (LoQ).
P8-D6 and P8-D6 mono each constituted about 20–30% of the detected derivatives. The extent of metabolism was, to a certain degree, organ-dependent (spleen > colon > lungs > kidney > liver). The highest concentration of P8-DO was found in the spleen at 8.7 nmol/g and the lowest in the liver at 4.5 nmol/g.
as §1
100 μL of each tissue homogenate/PNS was mixed with 200 μL of an ice-cold mixture of acetonitrile/methanol (2:1) and stirred in the vortex for 5 min. The suspension was centrifuged at 20000 g for 10 min, and 50 μL of the supernatant was injected into the HPLC. The samples from six mice per group were analyzed. Calibration/control samples were prepared the same way with organ samples collected from equal Sprague–Dawley rats from nonpharmacological studies prepared according to chapter Tissue/Enzymes. For calibration, the matrix was spiked with a defined concentration of the analyte. Final concentrations ranged from 0 to 10 nmol/g. Triple determinations were performed and prepared on each respective day. LoD: 0.81 nmol/g (spleen), 0.33 nmol/g (liver), 0.48 nmol/g (lungs), 1.14 nmol/g (colon), 0.38 nmol/g (kidney); LoQ: 2.69 nmol/g (spleen), 1.09 nmol/g (liver), 1.59 nmol/g (lungs), 3.80 nmol/g (colon), 1.28 nmol/g (kidney).

[4] = spleen, liver, lungs, kidney, colon after P8-D6

## COc1cc(-c2cc3ccncc3c3nc(OCC[N+](C)(C)[O-])c4cnccc4c23)cc(OC)c1OC [P8-D6 N-oxide]
[1]; pig liver PNS
  formation of metabolite from P8-D6: 6.88%
[1]; pig liver S9-fraction
  formation of metabolite from P8-D6: 7.58%
[1]; pig liver microsomes
  formation of metabolite from P8-D6: 28.67%
[2]
  P8-D6 (plus glucuronide) exceeds metabolite in feces: 31 fold
[2]; after 2 h
  concentration in feces: 2.90 nmol/g
[2]; rat, in vivo
  detectable in feces up to: up to 8 h
[3]; [4]
  detection in tissue: no P8-D6 N-oxide was observed at all

## CNCCOc1nc2c3cnccc3cc(-c3cc(OC)c(OC)c(OC)c3)c2c2ccncc12 [P8-D6 mono]
[1]; pig liver microsomes
  formation of metabolite from P8-D6: 1.31%
[1]; porcine liver microsomes
  extent of formation lower than P8-D6 N-oxide: 21.9 fold
[2]
  P8-D6 (plus glucuronide) exceeds metabolite in feces: 3.7 fold
[3]; [4]
  proportion of all derivatives detected in tissue: 20–30%

## COc1cc(-c2cc3ccncc3c3nc(OCCN(C)C)c4cnccc4c23)cc(OC)c1OC [P8-D6, 6-(N,N-dimethyl-2-aminoethoxy)-11-(3,4,5-trimethoxyphenyl)-pyrido[3,4-c][1,9]-phenanthroline]
[3]; [4]
  proportion of all derivatives detected in tissue: 20–30%

## COc1cc(-c2cc3ccncc3c3[nH]c(=O)c4cnccc4c23)cc(OC)c1OC [P8-DO]
[1]; pig liver microsomes
  formation of metabolite from P8-D6: 0.13%
[2]; 24 h
  detection in urine and feces: absent
[3]; liver (lowest)
  concentration in tissue: 4.5 nmol/g
[3]; spleen (highest)
  concentration in tissue: 8.7 nmol/g
[3]; [4]
  proportion of all derivatives detected in tissue: about 50%
